Experimental data from patent publication US8501977B2, “Platinum complex and pharmaceutical composition containing the same” (Unitech Co., Ltd., priority 2008, dated 2013).

Columns and labels:
[1] = tested on: RERF-LC-MA (human lung cancer cell); assay: MTS cell proliferation test, RERF-LC-MA (Embodiment 8); format: cell-based
Protocol: (§1) Respectively, the S medicine test solution was prepared by dissolving the ((S,S,S) cis,cis-spiro[4,4]nonane-1,6-diamine)oxalatoplatinum(II) complex (compound 2; hereinafter, it is described as S medicine) into the dimethylsulfoxide (DMSO) with the concentration of 10 mg/ml and the R medicine test solution was prepared by dissolving the ((R,R,R)cis,cis-spiro[4,4]nonane-1,6-diamine) oxalatoplatinum(II) complex (compound 3; hereinafter, it is described as R medicine) into the dimethylsulfoxide (DMSO) with the concentration of 10 mg/ml.
(§2) The test was performed by using A549 (human lung cancer cell), LU65A (human lung cancer cell), RERF-LC-MA (human lung cancer cell), LU99 (human lung cancer cell), H460 (human lung cancer cell), HCT116 (human colon cancer cell), HT-29 (human colon cancer cell), MKN-45 (human gastric cancer cell), MKN-1 (human gastric cancer cell), U937 (human lymphoma cell), KP-1N (human pancreas cancer cell) and B2452 (human mesotheliama cell) as the cancer cell.
(§3) These cells were suspended in the each culture medium that the serum of 10% was added, and were dispensed in 96-well plate. And then, these were cultured in 5% CO2 at 37 degrees centigrade during a night. Next day, the S medicine test solution and the R medicine test solution were prepared in the culture medium to the various concentrations (5, 10, 20 μg/ml), and were dispensed into the plates that the cells were set preliminarily. And further, these were cultured in 5% CO2 at 37 degrees centigrade for three days.
(§4) The cell proliferation after the medicine addition was measured on the 3rd day from the 1st day after the medicine addition by the MTS method (kit for cell proliferation test manufactured by Promega Company).
(§5) The inhibition rate (%) of the cell proliferation was obtained from the measured MTS value by the following formula. Inhibition rate(%)=(1-MTS value of medicine addition group/MTS value of medicine non-addition group)×100
(§6) Because the value which was obtained by the above-mentioned formula represents the inhibition rate of the cell proliferation, the higher the numerical value is, the higher the medicine effect is. It is desired that the one whose value is 50% or more has the medicine effect.

[2] = tested on: KP-1N (human pancreas cancer cell); assay: MTS cell proliferation test, KP-1N (Embodiment 8); format: cell-based
Protocol: as §1, §2, §3, §4, §5, §6

[3] = tested on: U937 (human lymphoma cell); assay: MTS cell proliferation test, U937 (Embodiment 7); format: cell-based; details: for medicine effect in the cancer cell (U937): summary of Table 1 in words
Protocol: The test solution was prepared by dissolving the (compound 1) into the dimethylsulfoxide ([…]) with the concentration of 8 mg/ml.
The test was performed by using the U937 (human lymphoma cell) as the cancer cell and using the HEK293 (human fetus kidney cell) as the normal cell.
These cells were suspended in the each culture medium that the serum of 10% was added, and were dispensed in 96-well plate. And then, these were cultured in 5% CO2 at 37 degrees centigrade during a night. Next day, the test solution was prepared in the culture medium to the various concentrations (0, 4, 8, 16 μg/ml), and was dispensed into the plate that the cells were set preliminarily. And further, these were cultured in 5% CO2 at 37 degrees centigrade for three days.
The cell proliferation after the medicine addition was measured on the 3rd day from the 1st day after the medicine addition by the […] (Kit for cell proliferation test manufactured by Promega Company).
as §5
Because the value which was obtained by the above-mentioned formula represents the inhibition rate of the cell proliferation, the higher the numerionl value is, the higher the medicine effect is. It is deemed that the one whose value is 50% or more has the medicine effect.

[4] = tested on: H460 (human lung cancer cell); assay: MTS cell proliferation test, H460 (Embodiment 8); format: cell-based
Protocol: as §1, §2, §3, §4, §5, §6

[5] = tested on: LU65A (human lung cancer cell); assay: MTS cell proliferation test, LU65A (Embodiment 8); format: cell-based
Protocol: as §1, §2, §3, §4, §5, §6

[6] = tested on: U937 (human lymphoma cell); assay: MTS cell proliferation test, U937 (Embodiment 8); format: cell-based
Protocol: as §1, §2, §3, §4, §5, §6

[7] = tested on: HT-29 (human colon cancer cell); assay: MTS cell proliferation test, HT-29 (Embodiment 8); format: cell-based
Protocol: as §1, §2, §3, §4, §5, §6

[8] = tested on: MKN-1 (human gastric cancer cell); assay: MTS cell proliferation test, MKN-1 (Embodiment 8); format: cell-based
Protocol: as §1, §2, §3, §4, §5, §6

[9] = tested on: H2452 cell (human mesothelicana cell); assay: MTS cell proliferation test, H2452 (Embodiment 8); format: cell-based
Protocol: as §1, §2, §3, §4, §5, §6

[10] = tested on: HCT116 (human colon cancer cell); assay: MTS cell proliferation test, HCT116 (Embodiment 8); format: cell-based
Protocol: as §1, §2, §3, §4, §5, §6

[11] = tested on: MKN-45 (human gastric cancer cell); assay: MTS cell proliferation test, MKN-45 (Embodiment 8); format: cell-based
Protocol: as §1, §2, §3, §4, §5, §6

[12] = tested on: A549 (human lung cancer cell); assay: MTS cell proliferation test, A549 (Embodiment 8); format: cell-based
Protocol: as §1, §2, §3, §4, §5, §6

[13] = tested on: LU99 (human lung cancer cell); assay: MTS cell proliferation test, LU99 (Embodiment 8); format: cell-based
Protocol: as §1, §2, §3, §4, §5, §6

tumor cells = assay: MTS cell proliferation test, all cancer cells of Embodiment 8; format: cell-based, human; details: summary of Table 2 in words
Protocol: as §1
as §2, with “cell. […]” for “cell.”
as §4
The inhibition rate (%) of the cell proliferation was obtained from the measured MTS value by the following formula. […]

Structure (SMILES)	Inhibition rate of cell proliferation after 3 days from medicine addition (%) ([1]; 10 μg/ml)	Inhibition rate of cell proliferation after 3 days from medicine addition (%) ([1]; 20 μg/ml)	Inhibition rate of cell proliferation after 3 days from medicine addition (%) ([2]; 10 μg/ml)	Inhibition rate of cell proliferation after 3 days from medicine addition (%) ([2]; 20 μg/ml)	medicine effect in the cancer cell (U937) [3]	Inhibition rate of cell proliferation after 3 days from medicine addition (%) ([4]; H460, 10 μg/ml)	Inhibition rate of cell proliferation after 3 days from medicine addition (%) ([4]; H460, 20 μg/ml)	Inhibition rate of cell proliferation after 3 days from medicine addition (%) ([5]; 10 μg/ml)	Inhibition rate of cell proliferation after 3 days from medicine addition (%) ([5]; 20 μg/ml)	Inhibition rate of cell proliferation after 3 days from medicine addition (%) ([6]; U937, 10 μg/ml)	Inhibition rate of cell proliferation after 3 days from medicine addition (%) ([6]; U937, 20 μg/ml)	Inhibition rate of cell proliferation after 3 days from medicine addition (%) ([7]; HT-29, 10 μg/ml)	Inhibition rate of cell proliferation after 3 days from medicine addition (%) ([7]; HT-29, 20 μg/ml)	Inhibition rate of cell proliferation after 3 days from medicine addition (%) ([8]; MKN-1, 10 μg/ml)	Inhibition rate of cell proliferation after 3 days from medicine addition (%) ([8]; MKN-1, 20 μg/ml)	Inhibition rate of cell proliferation after 3 days from medicine addition (%) ([9]; H2452, 10 μg/ml)	Inhibition rate of cell proliferation after 3 days from medicine addition (%) ([9]; H2452, 20 μg/ml)	Inhibition rate of cell proliferation after 3 days from medicine addition (%) ([10]; HCT116, 10 μg/ml)	Inhibition rate of cell proliferation after 3 days from medicine addition (%) ([10]; HCT116, 20 μg/ml)	Inhibition rate of cell proliferation after 3 days from medicine addition (%) ([11]; MKN-45, 10 μg/ml)	also measured
O=C1[O][Pt]2([NH][C@@H]3CCCC[C@H]3[NH]2)[O]C1=O [oxaliplatin, reference compound]	X (X: 0~25%)	X (X: 0~25%)	Δ (Δ: 26~50%)	◯ (◯: 51~75%)	medicine effect was also recognized	Δ (Δ: 26~50%)	Δ (Δ: 26~50%)	Δ (Δ: 26~50%)	◯ (◯: 51~75%)	⊚ (⊚: 76~100%)	⊚ (⊚: 76~100%)	Δ (Δ: 26~50%)	Δ (Δ: 26~50%)	◯ (◯: 51~75%)	⊚ (⊚: 76~100%)	Δ (Δ: 26~50%)	Δ (Δ: 26~50%)	◯ (◯: 51~75%)	◯ (◯: 51~75%)	⊚ (⊚: 76~100%)	Inhibition rate of cell proliferation for 1st to 3rd day from medicine addition (%) ([3]; U937, 4 μg/ml, 1st day): −5%; Inhibition rate of cell proliferation for 1st to 3rd day from medicine addition (%) ([3]; U937, 4 μg/ml, 2nd day): −26%; Inhibition rate of cell proliferation for 1st to 3rd day from medicine addition (%) ([3]; U937, 4 μg/ml, 3rd day): 12%; Inhibition rate of cell proliferation for 1st to 3rd day from medicine addition (%) ([3]; U937, 8 μg/ml, 1st day): −1%; Inhibition rate of cell proliferation for 1st to 3rd day from medicine addition (%) ([3]; U937, 8 μg/ml, 2nd day): −5%; Inhibition rate of cell proliferation for 1st to 3rd day from medicine addition (%) ([3]; U937, 8 μg/ml, 3rd day): 37%; Inhibition rate of cell proliferation for 1st to 3rd day from medicine addition (%) ([3]; U937, 16 μg/ml, 1st day): 0%; Inhibition rate of cell proliferation for 1st to 3rd day from medicine addition (%) ([3]; U937, 16 μg/ml, 2nd day): 30%; Inhibition rate of cell proliferation for 1st to 3rd day from medicine addition (%) ([3]; U937, 16 μg/ml, 3rd day): 73%; Inhibition rate of cell proliferation after 3 days from medicine addition (%) ([11]; MKN-45, 20 μg/ml): ⊚ (⊚: 76~100%); Inhibition rate of cell proliferation after 3 days from medicine addition (%) ([12]; A549, 10 μg/ml): X (X: 0~25%); Inhibition rate of cell proliferation after 3 days from medicine addition (%) ([12]; A549, 20 μg/ml): Δ (Δ: 26~50%); Inhibition rate of cell proliferation after 3 days from medicine addition (%) ([13]; LU99, 10 μg/ml): ◯ (◯: 51~75%); Inhibition rate of cell proliferation after 3 days from medicine addition (%) ([13]; LU99, 20 μg/ml): ◯ (◯: 51~75%)
O=C1[O][Pt]2([NH][C@H]3CCCC34CCC[C@@H]4[NH]2)[O]C1=O (stereo partly drawn) [compound 1, (cis,cis-spiro[4,4]nonane-1,6-diamine) oxalatoplatinum(II) complex]	–	–	–	–	remarkable medicine effect	–	–	–	–	–	–	–	–	–	–	–	–	–	–	–	–
NC1CCCC12CCCC2N.O=C1[O][Pt][O]C1=O [S medicine, ((S,S,S) cis,cis-spiro[4,4]nonane-1,6-diamine)oxalatoplatinum(II) complex]	Δ (Δ: 26~50%)	◯ (◯: 51~75%)	◯ (◯: 51~75%)	⊚ (⊚: 76~100%)	–	◯ (◯: 51~75%)	⊚ (⊚: 76~100%)	⊚ (⊚: 76~100%)	⊚ (⊚: 76~100%)	⊚ (⊚: 76~100%)	⊚ (⊚: 76~100%)	Δ (Δ: 26~50%)	◯ (◯: 51~75%)	⊚ (⊚: 76~100%)	⊚ (⊚: 76~100%)	Δ (Δ: 26~50%)	Δ (Δ: 26~50%)	◯ (◯: 51~75%)	◯ (◯: 51~75%)	⊚ (⊚: 76~100%)	Inhibition rate of cell proliferation after 3 days from medicine addition (%) ([1]; 5 μg/ml): X (X: 0~25%); Inhibition rate of cell proliferation after 3 days from medicine addition (%) ([2]; 5 μg/ml): Δ (Δ: 26~50%); Inhibition rate of cell proliferation after 3 days from medicine addition (%) ([4]; H460, 5 μg/ml): Δ (Δ: 26~50%); Inhibition rate of cell proliferation after 3 days from medicine addition (%) ([5]; 5 μg/ml): ◯ (◯: 51~75%); Inhibition rate of cell proliferation after 3 days from medicine addition (%) ([6]; U937, 5 μg/ml): ⊚ (⊚: 76~100%); medicine effect for the many tumor cells (tumor cells): high medicine effect compared with the oxaliplatin; Inhibition rate of cell proliferation after 3 days from medicine addition (%) ([7]; HT-29, 5 μg/ml): Δ (Δ: 26~50%); Inhibition rate of cell proliferation after 3 days from medicine addition (%) ([8]; MKN-1, 5 μg/ml): ◯ (◯: 51~75%); Inhibition rate of cell proliferation after 3 days from medicine addition (%) ([9]; H2452, 5 μg/ml): X (X: 0~25%); Inhibition rate of cell proliferation after 3 days from medicine addition (%) ([10]; HCT116, 5 μg/ml): ◯ (◯: 51~75%); Inhibition rate of cell proliferation after 3 days from medicine addition (%) ([11]; MKN-45, 5 μg/ml): ⊚ (⊚: 76~100%); Inhibition rate of cell proliferation after 3 days from medicine addition (%) ([11]; MKN-45, 20 μg/ml): ⊚ (⊚: 76~100%); Inhibition rate of cell proliferation after 3 days from medicine addition (%) ([12]; A549, 5 μg/ml): X (X: 0~25%); Inhibition rate of cell proliferation after 3 days from medicine addition (%) ([12]; A549, 10 μg/ml): ◯ (◯: 51~75%); Inhibition rate of cell proliferation after 3 days from medicine addition (%) ([12]; A549, 20 μg/ml): ⊚ (⊚: 76~100%); Inhibition rate of cell proliferation after 3 days from medicine addition (%) ([13]; LU99, 5 μg/ml): ◯ (◯: 51~75%); Inhibition rate of cell proliferation after 3 days from medicine addition (%) ([13]; LU99, 10 μg/ml): ⊚ (⊚: 76~100%); Inhibition rate of cell proliferation after 3 days from medicine addition (%) ([13]; LU99, 20 μg/ml): ⊚ (⊚: 76~100%)
